The values below come from PubChem BioAssay AID463203 (Broad Institute, 2010).

The source made the active and inactive calls.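 The calls were made as follows: active = more than half of replicate measurements showing over 20% loss of kinase signal relative to plate controls; inconclusive = some but at most half of replicates over 20% loss; inactive = no replicate over 20% signal loss.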 Some results are limits rather than exact numbers.

Chain of Glycogen synthase kinase-3 alpha (Homo sapiens) (P49840 whole entry, looked up): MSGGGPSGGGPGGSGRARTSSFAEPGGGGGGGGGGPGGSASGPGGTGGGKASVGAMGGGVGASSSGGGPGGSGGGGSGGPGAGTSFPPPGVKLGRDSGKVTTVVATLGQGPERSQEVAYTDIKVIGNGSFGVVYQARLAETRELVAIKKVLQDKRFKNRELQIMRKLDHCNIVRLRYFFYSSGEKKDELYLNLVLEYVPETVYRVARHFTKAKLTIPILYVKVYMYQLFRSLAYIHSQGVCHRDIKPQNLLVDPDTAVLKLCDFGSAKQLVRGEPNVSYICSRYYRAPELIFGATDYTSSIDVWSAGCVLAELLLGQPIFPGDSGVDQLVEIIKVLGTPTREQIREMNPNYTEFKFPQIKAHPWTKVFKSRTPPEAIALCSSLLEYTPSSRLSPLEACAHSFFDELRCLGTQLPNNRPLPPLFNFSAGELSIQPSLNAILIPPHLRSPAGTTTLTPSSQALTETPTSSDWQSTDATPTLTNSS

This test has as its target Glycogen synthase kinase-3 alpha (Homo sapiens) (UniProt P49840). The experiment in a line: concentration-response blocking of human GSK3A – biochemical, luminescence, cell-free homogeneous, retest, dose response (AID 463203). Particulars: GSK-3 alpha enzyme, ADP-Glo luminescence, 60 min.
For `CCOC(=O)CSc1nc(N)c(C#N)c(-c2cccs2)c1C#N`, the AC50 is > 30 µM (inactive). Next, `O=C(O)Cn1c(=O)c2c3c(sc2n(Cc2ccc(Cl)cc2Cl)c1=O)CCCC3`: > 30 µM (inactive).

As for `Nc1nc2n(n1)C(c1ccc(F)cc1)CC(c1ccc(F)cc1)N2` (stereo not drawn), the AC50 was > 30 µM (inactive). Next, `CCC(=N\NC(=O)COc1ccccc1OC)/C(CC)=N/NC(=O)COc1ccccc1OC`: > 30 µM (inactive). Next, `O=C(CSCCc1ccccn1)Nc1ccccn1`: > 30 µM (inactive). Next, `Cc1ccc(C)c(Sc2ccc(NC(=O)CCl)cc2)c1`: > 30 µM (inactive).

Regarding `COc1ccc(-c2cc(=O)c3ccccc3o2)cc1`, the AC50 is > 30 µM (inactive). Next, `Fc1ccccc1-c1n[nH]c(=S)n1/N=C/c1c[nH]c2ccccc12`: 22.5 µM; `Cc1cccc(-c2nnc3n2N=C(c2ccc(Br)cc2)CS3)c1`: > 30 µM (inactive); `Nc1ccc2c(c1)C(=O)c1ccccc1C2=O`: > 30 µM (inactive).

`O=c1ccc(-c2nc3ccccc3n2Cc2ccc(Cl)cc2)c[nH]1`: the AC50 was > 30 µM (inactive).

Turning to `CC(C)CC(=O)NC(=S)Nc1sc2c(c1C(N)=O)CCC2`, the AC50 is > 30 µM (inactive). Consider `CCOC(=O)c1c(NC(=O)CN2C(=O)NC3(CCCCC3C)C2=O)sc(C)c1CC` (stereo not drawn), for which the AC50 is > 30 µM (inactive).

As for `NC(=O)c1ccsc1NC(=O)C1CCCCC1`, the AC50 was > 30 µM (inactive). Next, `c1ccc(-c2csc3ncnc(NCc4ccccn4)c23)cc1`: 24.5 µM; `CCOC(=O)c1[nH]c2c(c1-c1ccccc1)C(=O)CC(c1ccc(Cl)cc1)C2` (stereo not drawn): > 30 µM (inactive). As for `COc1ccc(CNc2ccc3cn[nH]c3c2)c(OC)c1OC`, the AC50 was 19.8 µM. Next, `O=c1ccc2ccccc2o1`: > 30 µM (inactive). Next, `CCOC(=O)N1CCC(N2CCN(S(=O)(=O)c3ccc4ccccc4c3)CC2)CC1`: > 30 µM (inactive); `c1ccc2c(c1)Sc1ccccc1-n1cnnc1-2`: > 30 µM (inactive); `O=[N+]([O-])c1cc(S(=O)(=O)N2CCCC2)ccc1NCCCN1CCOCC1`: > 30 µM (inactive). With `Cc1nc2sc(C(N)=O)c(N)c2c2c1CCCC2`, the AC50 was 28 µM.

Take `Cc1ccc(CSCCNC(=O)c2ccccc2)cc1`: the AC50 was > 30 µM (inactive). As to `Cc1cc(C)c(OCC(O)CNC(C)(C)C)c(C)c1` (stereo not drawn), the AC50 is > 30 µM (inactive). As for `COc1cccc(-c2cc(C(=O)N3CCN(c4ccccc4OC)CC3)no2)c1`, the AC50 is > 30 µM (inactive). As for `Fc1ccc(Nc2ccnc(Nc3ccc(F)cc3)n2)cc1`, the AC50 was > 30 µM (inactive). Next, `CCOC(=O)c1cc(C)sc1NC(=O)CCC(=O)O`: > 30 µM (inactive). Next, `CCC(Sc1ccc2nnc(-c3ccc(OC)c(OC)c3)n2n1)C(=O)O` (stereo not drawn): 29.2 µM; `CCOC(=O)c1nnn(-c2nonc2N)c1COc1cc(C)c(Cl)c(C)c1`: 6.9 µM; `O=C1/C(=C/c2ccco2)Oc2c1ccc(O)c2CN1CCCCC1`: 10 µM.

With `CC(C)(C)OC(=O)N1CCN(C(=O)c2[nH]cnc2C(=O)Nc2ccon2)CC1`, the AC50 was > 30 µM (inactive). Next, `COc1cccc(NC(=O)CN(C)C(=O)C23CC4CC(CC(Cl)(C4)C2)C3)c1`: > 30 µM (inactive); `O=C(O)COc1ccc2c(c1)O/C(=C\c1cccs1)C2=O`: 26.2 µM; `Cc1ccc(S(=O)(=O)Nc2cccc3ncccc23)cc1`: > 30 µM (inactive). As to `CCOC(=O)N1CC=C2C(C#N)=C(N)C(C#N)(C#N)[C@H](c3cccs3)[C@H]2C1`, the AC50 is 22.1 µM. Next, `Cc1nc(NC(=O)c2ccccc2)sc1Cc1ccc2c(c1)OCO2`: > 30 µM (inactive); `COc1ccc(/C=C2\Oc3cc(OCC(=O)N4CCC[C@H]4C(=O)O)ccc3C2=O)c(OC)c1`: > 30 µM (inactive); `Cn1nnnc1SCC(=O)Nc1nn(-c2ccccc2)nc1C(N)=O`: 24.2 µM. Next, `O=[N+]([O-])c1ccc(Nc2nc(Cl)nc(NCCO)n2)cc1`: > 30 µM (inactive); `O=C(NC(=S)Nc1cccc2cnccc12)c1ccccc1`: > 30 µM (inactive); `Cc1sc2ncnc(SCC(=O)NCC3CCCO3)c2c1C` (stereo not drawn): > 30 µM (inactive). Next, `COc1ccccc1C(=O)Nc1nc(C)cc(C)n1`: > 30 µM (inactive); `COc1ccc(CNC(=O)c2cc(COc3c(F)cccc3F)on2)cc1OC`: > 30 µM (inactive); `O=S(=O)(NCC1CCCO1)c1ccc(Cl)nc1` (stereo not drawn): > 30 µM (inactive). Turning to `Cc1sc2ncnc(N3CCC(C(=O)Nc4ccc(C#N)cc4)CC3)c2c1C`, the AC50 is > 30 µM (inactive). For the compound `Oc1ccc2oc3c(c2c1/C=N/n1cnnc1)CCCC3`, the AC50 is > 30 µM (inactive). Next, `CN1CCc2nc3sc(C(=O)NC4CC4)c(N)c3cc2C1`: > 30 µM (inactive); `CC(C)N=C(NC#N)SCc1ccccc1F`: > 30 µM (inactive); `COc1cc(/C=C/c2nc(N)nc(-c3ccccc3O)n2)cc(OC)c1OC`: > 30 µM (inactive). Next, `COc1cc(C(=O)Oc2cc(C)cc(C)c2)cc(OC)c1OC`: > 30 µM (inactive); `Cn1c(=O)c2c(nc(NCC3CCCO3)n2Cc2ccccc2)n(C)c1=O` (stereo not drawn): > 30 µM (inactive). Next, `Cc1c(C(=O)OC(C)C)[nH]c2c1C(=O)CC(C)(C)C2`: > 30 µM (inactive); `COc1cccc(C(=O)NCC(=O)OCC(=O)c2ccccc2)c1`: > 30 µM (inactive). For the compound `Cc1nnc(SCC(=O)N(C(C)C)C(C)C)nc1C`, the AC50 was > 30 µM (inactive). Next, `CC1CCc2c(sc(NC(=O)CCCn3cnc([N+](=O)[O-])n3)c2C(N)=O)C1` (stereo not drawn): > 30 µM (inactive); `N#C/C(=N\Nc1c(Cl)cccc1Cl)C(=O)NN`: 5.86 µM; `COc1cccc(Cn2nnc(C(=O)Nc3cc(Cl)ccc3OC)c2N)c1`: > 30 µM (inactive). Next, `CCOc1ccc(S(=O)(=O)Nc2cccc(C(=O)NCCCn3ccnc3)c2)cc1`: > 30 µM (inactive); `COc1ccc(C(=O)NCC(=O)N/N=C/C(C)=C/c2ccccc2)cc1OC`: > 30 µM (inactive); `CC(C)Nc1nc(NC(C)C)nc(C(=O)OCCO)n1`: > 30 µM (inactive). Next, `CCOc1cccc(-c2c(C(=O)N/N=C(\C)c3ccncc3)nnn2-c2nonc2N)c1`: 1.45 µM. For `C[C@H](CO)N1C[C@H](C)[C@@H](CN(C)S(=O)(=O)c2ccc(F)cc2)Oc2c(NC(=O)Cc3ccccc3)cccc2C1=O`, the AC50 was > 30 µM (inactive). Next, `CN1CCN(c2nc(NCc3ccco3)nc(N)c2[N+](=O)[O-])CC1`: > 30 µM (inactive).

Take `O=C1NC(=O)/C(=C\c2ccc(OCc3cccc(C(=O)O)c3)c(Cl)c2)N1`: the AC50 is 4.85 µM. Next, `NC(=O)c1cc([N+](=O)[O-])ccc1NCc1cccc([N+](=O)[O-])c1`: 3.49 µM; `COc1cc2sc(C)nc2c2ccccc12`: > 30 µM (inactive); `C/C(=N\NC(=O)c1nnn(-c2nonc2N)c1CN1CCCCCC1)c1ccc(Br)cc1`: 29.7 µM. Next, `Cc1ccc(NC(=O)CSCc2ccco2)cc1`: > 30 µM (inactive). Next, `CC(C)(C)NC(=O)CSc1ncccc1-c1nc2ccccc2[nH]1`: > 30 µM (inactive). For the compound `O=C(CSc1nnc(-c2ccc(O)cc2)o1)Nc1cccc(O)c1`, the AC50 was 21.6 µM. On to `COc1ccc(C(=O)Nc2nc(C)c(C)s2)cc1OC`, for which the AC50 is > 30 µM (inactive). With `COC(=O)[C@@H](NC(=O)NCc1ccccc1F)C(C)C`, the AC50 was > 30 µM (inactive). With `C/C(=C/c1oc2ccc(O)cc2c1[N+](=O)[O-])N(C)C`, the AC50 was > 30 µM (inactive). Next, `CCNc1c(C(=O)O)ccc2c1C(=O)c1ccccc1C2=O`: > 30 µM (inactive); `Cc1ccc2c(c1)Oc1ccc(NC(=O)CCl)cc1C(=O)N2`: > 30 µM (inactive); `CC1(C)Cc2cccc(C(=O)Nc3ccncc3)c2O1`: 5.8 µM.

On to `O=C(c1ccc2c3n(nc2c1)-c1ccccc1CO3)N1CCOCC1`, for which the AC50 was 18.8 µM. Take `Cc1cc2nc(-c3cccnc3SCC(=O)NCc3ccco3)[nH]c2cc1C`: the AC50 is > 30 µM (inactive). Next, `COc1ccc(C2=Nn3c(nnc3-c3cccnc3)SC2)cc1OC`: > 30 µM (inactive); `CCn1c2ccccc2c2nc3ccccc3nc21`: > 30 µM (inactive). As for `CCOc1nc(NCCN2CCOCC2)nc(Nc2ccc([N+](=O)[O-])cc2)n1`, the AC50 was > 30 µM (inactive).

As to `Cc1nc2ncnn2c(C)c1Cc1c(Cl)cccc1Cl`, the AC50 was > 30 µM (inactive). With `O=C(O)c1ccc2c(c1)S(=O)(=O)c1cc(Cl)ccc1C2=O`, the half-maximal activity concentration (AC50) is 6.54 µM. Next, `CN1/C(=C/C=C(C#N)C#N)C(C)(C)c2ccccc21`: > 30 µM (inactive); `Cc1nc(SCCC(C)C)c([N+](=O)[O-])[nH]1`: > 30 µM (inactive); `N#CC(C#N)=C1CCc2ccccc2N1`: > 30 µM (inactive). Next, `Cc1cc(NC(=O)CSc2nc3ccccc3c(=O)n2CCCC(=O)NCc2ccco2)n[nH]1`: > 30 µM (inactive). Take `Cc1cnc(NC(=O)C2CC(=O)N(c3cccc(Cl)c3)C2)s1` (stereo not drawn): the AC50 is 12.6 µM. Next, `COC(=O)c1cnn(C(=O)c2cc(OC)ccc2Br)c1N`: > 30 µM (inactive). Next, `O/N=C1/CC/C(=N\O)c2nn(-c3ccccc3)nc21`: 25.3 µM. Next, `Cc1cccc(N(CC(O)CN2CCCC2)S(=O)(=O)c2ccccc2)c1` (stereo not drawn): > 30 µM (inactive); `CCOC(=O)c1ccc(N2C=C(C(=O)OC)C(c3ccc(OC)c(O)c3)C(C(=O)OC)=C2)cc1`: > 30 µM (inactive); `Cc1ccsc1C1C2=C(CC(C)(C)CC2=O)Nc2ncnn21` (stereo not drawn): 11.3 µM.
